Results reported in patent US20080057529A1, “Method for Identifying Histone Deacetylase Inhibitors” (priority 2003, published 2008).

Columns and labels:
Type in all cases: cell-based, human
[1] = system: p21 minimal promoter; assay: Transient transfection of HeLa cells with p21m-BLA reporter plasmid, Bla staining (blue cells)
Description: (§1) The p21m-BLA reporter plasmid was tested in transient transfection experiments of HeLa cells to evaluate the responsiveness of the minimal p21 promoter and the Bla reporter system to known HDAC inhibitors. In the first two transfection experiments, HeLa cells were transfected with 1 or 2 μg of Bla reporter plasmid containing either p21 minimal promoter (p21m-BLA) or CMV promoter (CMV-BLA) and 0.1 μg of pCMV-Luc or pRSV-Luc control plasmids. Different DNA-FUGENE transfection reagent ratios were tested (FUGENE is available from Roche Applied Science, Indianapolis, Ind.). […] Data are summarized below in Tables 1 and 2.
(§2) The percentage of β-lactamase-positive cells increased with time independent of the presence of HDAC inhibitors and was constantly higher with p21m-BLA than with pCMV-BLA.
In light of the above, the lack of apparent Bla activation in the above transfection experiments might have been due to the high sensitivity of the method. Therefore, transient transfections in which an accurate titration of the reporter plasmid DNA were performed. The titration of the reporter plasmid included using amounts lower than was used above. […] The transient transfections were repeated and the result confirmed (Table 7).

[2] = system: p21 minimal promoter; assay: Transient transfection of HeLa cells with p21m-SEAP reporter plasmid, SEAP activity; details: Apicidin 1 μM, TSA 300 nM; for SEAP (10 min) / SEAP norm-bckg/RLU norm: Table 5
Description: To determine whether the p21 minimal promoter was responsive to HDAC inhibitors, a reporter plasmid containing the secreted alkaline phosphatase gene (SEAP) operably linked to the p21 minimal promoter (−182 through +25), pcDNA3-21m-SEAP, was tested in transient transfection experiments of HeLa cells. […] All data summarized in Tables 4 through 7 were obtained by normalizing the total amount of transfected DNA to 2.1 μg using a promoterless plasmid.

[3] = system: p21 minimal promoter; assay: Fluorometric β-lactamase activity assay in stable HeLa clone 1.17 (p21m-BLA)
Description: All clones were screened for the presence of stably and functional integrated copies of the p21m-BLA reporter gene transcription cassette by performing a fluorometric β-lactamase activity assay after treatment with the HDAC inhibitor Apicidin at a concentration of 1 μM (saturating dose representing 100% of Bla gene activation, i.e., 100% of HDAC inhibition). A 100 μL aliquot of cells for each stable transformant in complete DMEM was plated into a well of a 96 well plate at about 36,000 cells per well for treatment with 1 μM Apicidin (saturating dose) and a 100 μL aliquot of cells was plated into a well of a 96 well plate at 24,000 cells per well for treatment with DMSO (vehicle control). […] After 4 hours, 25 μL of complete DMEM containing Apicidin at 5× final concentration or DMSO (5%) was added to each of the wells. The cells were then grown at 37° C., 5% CO2 for about 12 to 16 hours. Afterwards, the medium was removed and 100 μL of DMEM without serum and 25 μL of FRET labeled CCF2-AM Bla substrate diluted in the appropriate buffer according to the manufacturer recommendations were each added to the cells to give a final concentration of 1 μM CCF2-AM.

[4] = system: HDAC activity (acetylated histone H3); assay: Acetylation of core histones (inhibition of HDAC activity) in HeLa cells, acetylated histone H3 immunoblot; details: HeLa cells, 13 hour treatment, immunoblot densitometry; read-out: AcH3 EC50
Description: Induction of endogenous p21 and acetylation of core histones (inhibition of HDAC activity) was as follows. Dose-response experiments were performed in HeLa cells with different classes of known HDAC inhibitors. […] An α-tubulin-specific antibody (Sigma, St. Louis, Mo.; catalog number: T9026) was used as an internal standard. Quantitative data were obtained by densitometric analysis of X-ray films and were normalized for the internal standard values.

[5] = system: HeLa cells; assay: Cell death in transiently transfected HeLa cells
Description: as §1, §2

[6] = system: CMV promoter; assay: Luc activity of co-transfected pCMV-Luc control plasmid in HeLa cells; details: for RLU norm mean / RLU/μg: Table 5; for RLU/μg: luciferase control plasmid not named
[7] = Table 2, 400 nM, 12 hours, 1 μg p21m-BLA + 3 μL F + CMV-luc
[8] = Table 3, 2 μg p21m-BLA + 0.1 μg pCMV-Luc, 6 hr treatment, TSA 300 nM, Apicidin 1 μM
[9] = Table 3, 2 μg p21m-BLA + 0.1 μg pCMV-Luc, 12 hr treatment, TSA 300 nM, Apicidin 1 μM
[10] = Table 3, 2 μg p21m-BLA + 0.1 μg pCMV-Luc, 24 hr treatment, TSA 300 nM, Apicidin 1 μM
[11] = Apicidin 1 μM, TSA 300 nM, P21m-SEAP 0 μg DNA
[12] = Apicidin 1 μM, TSA 300 nM, P21m-SEAP 0.1 μg DNA
[13] = Apicidin 1 μM, TSA 300 nM, P21m-SEAP 0.5 μg DNA
[14] = Apicidin 1 μM, TSA 300 nM, P21m-SEAP 1 μg DNA

## CC(/C=C/C(=O)NO)=C\[C@@H](C)C(=O)c1ccc(N(C)C)cc1 [TSA, Trichostatin A]
[1]; Table 1, 400 nM, 12 hours induction, 1 μg p21m-BLA + 3 μL F
  % Blue cells: 1%
[1]; Table 1, 400 nM, 12 hours induction, 1 μg p21m-BLA + 5 μL F
  % Blue cells: <1%
[1]; Table 1, 400 nM, 12 hours induction, 2 μg p21m-BLA + 6 μL F
  % Blue cells: 1%
[1]; Table 1, 400 nM, 12 hours induction, 2 μg p21m-BLA + 10 μL F
  % Blue cells: <1%
[1]; Table 2, 400 nM, 12 hours induction, 1 μg p21m-BLA + 3 μL F
  % Blue cells: 5%
[1]; Table 2, 400 nM, 12 hours induction, 2 μg p21m-BLA + 6 μL F
  % Blue cells: 5%
[1]; [7]
  % Blue cells: 4%
[1]; Table 2, 400 nM, 12 hours, 1 μg p21m-BLA + 3 μL F + RSV-luc
  % Blue cells: 5%
[1]; Table 2, 400 nM, 12 hours, 2 μg p21BLA + 6 μL F + CMV-luc
  % Blue cells: 4%
[1]; Table 2, 400 nM, 12 hours, 2 μg p21m-BLA + 6 μL F + RSV-luc
  % Blue cells: 4%
[1]; [8]
  % Blue cells: 2-3%
[1]; [9]
  % Blue cells: 10%
[1]; [10]
  % Blue cells: 10%
[2]; p21m-SEAP promoter titration in HeLa
  induction of SEAP (maximum): up to 26 fold
[2]; P21m-SEAP 0 μg DNA (total DNA 2.1 μg)
  SEAP (10 min): 2313
[2]; P21m-SEAP 0.1 μg DNA
  SEAP norm-bckg/RLU norm: 6,558.72
[2]; P21m-SEAP 0.1 μg DNA (total DNA 2.1 μg)
  SEAP (10 min): 4405
[2]; P21m-SEAP 0.2 μg DNA
  SEAP norm-bckg/RLU norm: 11,855.92
[2]; P21m-SEAP 0.2 μg DNA (total DNA 2.1 μg)
  SEAP (10 min): 9328
[2]; P21m-SEAP 0.5 μg DNA
  SEAP norm-bckg/RLU norm: 25,471.82
[2]; P21m-SEAP 0.5 μg DNA (total DNA 2.1 μg)
  SEAP (10 min): 15743
[2]; P21m-SEAP 1 μg DNA
  SEAP norm-bckg/RLU norm: 108,713.07
[2]; P21m-SEAP 1 μg DNA (total DNA 2.1 μg)
  SEAP (10 min): 50626
[2]; P21m-SEAP 2 μg DNA
  SEAP norm-bckg/RLU norm: 201,678.57
[2]; P21m-SEAP 2 μg DNA (total DNA 2.1 μg)
  SEAP (10 min): 109998
[3]; clone 1.17, 600 nM for 13 hr, then 7 days in culture, DMSO-treated samples
  reversion of Bla induction after FACS sorting: Complete reversion
[3]; clone 1.17, 300 or 600 nM for 13 hours, 48 hours after removal
  reversibility of induction of BlaM transcription: complete shut down of β-lactamase activity
[3]; clone 1.17, about 13 hours treatment, means of 3 to 4 independent experiments, read-out: p21m-Bla EC50
  EC50: 90 nM
[4]
  EC50: 130 nM
[5]; 400 nM, 12 hours induction, transfected HeLa cells, both experiments
  cells dead after treatment: approximately 50%
[5]; 12 and 24 hours, TSA 300 nM vs Apicidin 1 μM
  cell death at longer incubation times, compared with Apicidin: higher fraction of cells died
[5]; after 6 hours, TSA 300 nM, Apicidin 1 μM, transfected HeLa cells
  Cell-death: not visible
[6]; Table 1, 400 nM, 12 hours, 2 μg CMV-BLA + 6 μL F, control plasmid not given
  RLU/mg: 14934 RLU/mg
[6]; Table 1, 400 nM, 12 hours, 2 μg p21m-BLA + 6 μL F, control plasmid not given
  RLU/mg: 50773.9 RLU/mg
[6]; Table 1, 400 nM, 12 hours, 2 μg p21m-BLA + 10 μL F, control plasmid not given
  RLU/mg: 22499.2 RLU/mg
[6]; Table 2, 400 nM, 12 hours, 1 μg CMV-BLA + 3 μL F + CMV-luc
  RLU/mg: 14928.8 RLU/mg
[6]; [7]
  RLU/mg: 47709.8 RLU/mg
[6]; [8]
  RLU/mg: 85379 RLU/mg
[6]; [9]
  RLU/mg: 248656.9 RLU/mg
[6]; [10]
  RLU/mg: 110180.6 RLU/mg
[6]; Table 3, 2 μg pCMV-BLA + 0.1 μg pCMV-Luc, 6 hr treatment, TSA 300 nM, Apicidin 1 μM
  RLU/mg: 12579.8 RLU/mg
[6]; Table 3, 2 μg pCMV-BLA + 0.1 μg pCMV-Luc, 12 hr treatment, TSA 300 nM, Apicidin 1 μM
  RLU/mg: 33592.3 RLU/mg
[6]; Table 3, 2 μg pCMV-BLA + 0.1 μg pCMV-Luc, 24 hr treatment, TSA 300 nM, Apicidin 1 μM
  RLU/mg: 22233.7 RLU/mg
[6]; [11]
  RLU norm mean: 0.97
  RLU/μg: 94,973.90 RLU/μg
[6]; [12]
  RLU norm mean: 0.97
  RLU/μg: 95,526.00 RLU/μg
[6]; Apicidin 1 μM, TSA 300 nM, P21m-SEAP 0.2 μg DNA
  RLU/μg: 116,091.50 RLU/μg
[6]; [13]
  RLU norm mean: 0.85
  RLU/μg: 83,237.58 RLU/μg
[6]; [14]
  RLU norm mean: 0.89
  RLU/μg: 87,194.70 RLU/μg
[6]; Apicidin 1 μM, TSA 300 nM, P21m-SEAP 2 μg DNA
  RLU/μg: 111,592.45 RLU/μg
